According to patent US9296778B2, “3′,5′-cyclic phosphate prodrugs for HCV infection” (Idenix Pharmaceuticals, Inc., priority 2012, dated 2016):

Assays:
[1] = test system: Huh-7 cells; assay: Release of active metabolite in Huh-7 cells; assay type: in vitro ADME, human; details: Huh-7 cells, AUC0-72
Protocol: Huh-7 cells were plated in 1 mL culture medium (DMEM, containing glucose, L-glutamine and sodium pyruvate, 10% FBS, 100 IU/mL penicillin, 100 μg/mL streptomycin, 2 mM GlutaMAX, 1% MEM non-essential amino acids) at the concentration 0.8, 0.4 and 0.2 million cells per well on 6 well plates for 24, 48 and 72 hr treatment, respectively. Plated cells were incubated overnight at 37° C. in an incubator.
The following morning compounds was diluted to 20 μM from a stock solution in DMSO in fresh culture medium pre-warmed to 37° C. and 1 mL of the solution/well was added to cells. A final medium volume per well was 2.0 mL, Compound concentration in well was 10 μM and final DMSO concentration was 0.1%.
After 24, 48 or 72 hr, the medium was carefully removed and cell monolayers were washed twice with 2 mL ice-cold PBS per well. Following the last wash, all PBS was carefully removed and 1.0 mL of extraction solution (ice-cold 70% methanol) added. The plate was tightly covered with Parafilm, plastic plate cover and Parafilm again and an intracellular content was extracted at −20° C. for 24 hr.
After 24 hr extracts were transferred into polypropylene microfuge tubes and dried on a refrigerated centrivap concentrator. Dry residues were reconstituted in 250 μL of HPLC-grade water and centrifuged at 16,000×g for 10 min. Aliquots (100 μL each) of the supernatants were transferred into a 96 well plate and internal standard (4 ng/mL final concentration) was added as the internal standard (IS) for LC-MS/MS analysis.

[2] = target: T1, carboxylesterase 1 (CES1) (Homo sapiens, UniProt P23141); assay: CES1 hydrolysis assay; assay type: in vitro ADME; details: for CES1 hydrolysis: 100 μM compound, 37° C.
T1 construct: purchased R & D Systems (Minneapolis, Minn.)
T1 sequence (P23141 18-567): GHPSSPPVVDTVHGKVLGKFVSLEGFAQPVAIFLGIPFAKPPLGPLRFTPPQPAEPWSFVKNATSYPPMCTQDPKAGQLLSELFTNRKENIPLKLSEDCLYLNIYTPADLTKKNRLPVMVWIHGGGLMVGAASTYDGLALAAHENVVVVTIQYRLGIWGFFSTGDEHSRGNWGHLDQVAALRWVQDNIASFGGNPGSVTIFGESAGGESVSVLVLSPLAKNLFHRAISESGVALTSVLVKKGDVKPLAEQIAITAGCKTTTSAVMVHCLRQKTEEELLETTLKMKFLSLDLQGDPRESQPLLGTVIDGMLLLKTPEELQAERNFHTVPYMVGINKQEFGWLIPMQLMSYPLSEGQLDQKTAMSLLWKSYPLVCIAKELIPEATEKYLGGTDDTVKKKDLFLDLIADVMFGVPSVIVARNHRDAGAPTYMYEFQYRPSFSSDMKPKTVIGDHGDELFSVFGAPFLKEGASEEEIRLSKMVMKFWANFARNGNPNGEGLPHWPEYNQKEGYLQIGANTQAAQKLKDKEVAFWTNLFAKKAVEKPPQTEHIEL
Protocol: CES1 assay was performed at 37° C. in the reaction mixture containing 50 mM Tris/HCl buffer pH 7.5 and 100 μM of the compound. Reaction was started by addition of the CES1 to the final concentration 0.01 μg/mL. 100 μL aliquots were taken after 0.5 min, 3 hrs and 21 hrs of the incubation and the reaction was stopped by mixing with 100 μl of the ice-cold methanol prior to HPLC analysis.
(§1) Samples were analyzed by HPLC using 5μ C-18, 4.6×250 mm Phenomenex® Columbus column (Phenomenex USA, CA). The mobile phase consisted of buffer A (25 mM potassium phosphate with 5 mM tetrabutylammonium dihydrogen phosphate pH 6.3) and buffer B (100% methanol).

[3] = test system: genotype 1b HCV replicon; assay: genotype 1b HCV replicon-bearing Huh-7 cells (Table 5); assay type: cell-based
From the text: In vivo Z4 and Z2 appear to be effectively liver-targeted with a high liver:plasma ratio of drug metabolites. Both prodrugs are readily converted to the triphosphate (TP) metabolite in the liver of mice and monkey producing more TP than GS-7977. […] The in vitro antiviral inactivity of Z4 and Z2 is thought to reflect an inability of Huh-7 replicon cells to metabolize the prodrug moiety.

[4] = target: T2, cathepsin A (CatA) (Homo sapiens, UniProt P10619); assay: CatA hydrolysis assay; assay type: in vitro ADME; details: 100 μM compound, 37° C., 18 h
T2 construct: purchased R & D Systems (Minneapolis, Minn.)
T2 sequence (P10619 29-326 limits assumed): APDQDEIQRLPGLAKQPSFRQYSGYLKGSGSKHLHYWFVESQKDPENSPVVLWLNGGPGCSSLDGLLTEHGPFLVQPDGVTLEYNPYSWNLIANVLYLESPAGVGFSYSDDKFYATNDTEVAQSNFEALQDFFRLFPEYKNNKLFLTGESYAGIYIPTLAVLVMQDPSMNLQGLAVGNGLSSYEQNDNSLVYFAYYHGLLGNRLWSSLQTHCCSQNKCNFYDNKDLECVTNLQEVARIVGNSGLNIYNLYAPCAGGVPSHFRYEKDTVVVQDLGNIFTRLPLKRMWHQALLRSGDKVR
T2 sequence (P10619 327-480 limits assumed): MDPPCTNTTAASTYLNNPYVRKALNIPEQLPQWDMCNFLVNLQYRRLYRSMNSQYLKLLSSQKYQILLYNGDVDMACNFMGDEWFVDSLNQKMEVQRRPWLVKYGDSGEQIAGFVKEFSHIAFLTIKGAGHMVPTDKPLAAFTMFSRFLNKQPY
Protocol: CatA, cathepsin L (CatL) and CES1 were purchased from R & D Systems (Minneapolis, Minn.). Prior to the enzymatic hydrolysis reactions, CatA was activated according to the manufacturer's instruction. Briefly, CatA (0.05 μg/μL) was incubated with CatL (0.005 μg/μL) for 30 min at 37° C. in 25 mM MES pH 6.0 containing 5 mM DTT. The reaction was stopped by addition of the CatL specific inhibitor E64 (10 μM).
The CatA assay was performed at 37° C. The reaction mixture contained 25 mM MES buffer pH 6.0, 100 mM NaCl, 4 mM DTT and 100 μM of the compound. The reaction was started by addition of the activated CatA enzyme to a final concentration of 0.005 μg/μL. One hundred-μL aliquots were taken after 0.5 min, 3 hrs and 18 hrs of incubation. Reactions were stopped by mixing the sample with an equal volume of ice-cold methanol, and were loaded on a HPLC for analysis.
as §1

[5] = Liver TP (Table 5); assay type: in vivo
[6] = test system: HCV genotype 1b replicon; assay: HCV Replicon Assay; assay type: cell-based; details: Hepatitis C virus, 72 h, read-out: HCV Replicon EC50
How it was run: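 Zluc Huh-7 cells with HCV genotype 1b replicon and luciferase reporter treated with 5-fold dilutions (100 μM to 0.0000512 μM final) in duplicate, or at 1 and 10 μM. Luminescence read with ONE-glo; EC50 from dose-response fits, or % inhibition at the fixed concentrations.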

[7] = cytotoxicity evaluation (CellTiter-Blue Cell Viability Assay); details: human

Structure (SMILES)	Huh-7 AUC0-72 [1]	hydrolysis by CES1 (in words) [2]	CES1 hydrolysis ([2]; 3 h)	CES1 hydrolysis ([2]; 21 h)	EC50 [3]	CatA hydrolysis [4]	Liver TP [5]	EC50 [6]	CC50 [7]
CC(C)OC(=O)[C@H](C)N[P@@](=O)(OC[C@H]1O[C@@H](n2ccc(=O)[nH]c2=O)[C@](C)(F)[C@@H]1O)Oc1ccccc1 [PSI-7976]	6527 pmol * hr/10^6cells	preferentially hydrolyzed	56%/3 h;	94%/21 h	2080 nM	10% @ 18 h	310 pmol·h/g		
CCOc1nc(N)nc2c1ncn2[C@@H]1O[C@@H]2COP(=O)(Oc3ccc(C[C@H](NC(=O)OC)C(=O)OC(C)C)cc3)O[C@H]2[C@@]1(C)F (stereo partly drawn) [Compound 13]								< 250 nM	> 50000 nM
